Reference: patent US20250320206A1, “STAT6 DEGRADERS” (Gilead Sciences, Inc., priority 2024, published 2025)

Columns and labels:
[1] = test system: Eotaxin-3 release in human whole blood stimulated with IL-4; test: Human Whole Blood Eotaxin-3 Assay (IL-4 stimulated eotaxin-3 release); type: cell-based; settings: IL-4 stimulation, 48 h, values given for compounds with >80% Emax, geometric mean
Outline: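 Eotaxin-3 (CCL26) release measured by MSD kit in plasma supernatant after 48 h IL-4 stimulation ([…]) of human whole blood. Compounds added in triplicate 4-fold dilutions 2 h before stimulation; 0.5% DMSO final, 37° C, 5% CO2.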

STAT6 = biological target: T1, STAT6 (Homo sapiens, UniProt P42226); test: Stat6 Degrader Assay (HiBiT based, HeLa LgBiT clone 4.14); type: cell-based; settings: HeLa LgBiT clone 4.14 HiBiT-STAT6, 4-24 h incubation; for DC50: values given for compounds with >80% Emax, geometric mean, read-out: STAT6 degradation DC50
T1 construct: These cells express endogenous STAT6; host or cells: HeLa LgBiT clone 4.14
T1 sequence (P42226 1-847): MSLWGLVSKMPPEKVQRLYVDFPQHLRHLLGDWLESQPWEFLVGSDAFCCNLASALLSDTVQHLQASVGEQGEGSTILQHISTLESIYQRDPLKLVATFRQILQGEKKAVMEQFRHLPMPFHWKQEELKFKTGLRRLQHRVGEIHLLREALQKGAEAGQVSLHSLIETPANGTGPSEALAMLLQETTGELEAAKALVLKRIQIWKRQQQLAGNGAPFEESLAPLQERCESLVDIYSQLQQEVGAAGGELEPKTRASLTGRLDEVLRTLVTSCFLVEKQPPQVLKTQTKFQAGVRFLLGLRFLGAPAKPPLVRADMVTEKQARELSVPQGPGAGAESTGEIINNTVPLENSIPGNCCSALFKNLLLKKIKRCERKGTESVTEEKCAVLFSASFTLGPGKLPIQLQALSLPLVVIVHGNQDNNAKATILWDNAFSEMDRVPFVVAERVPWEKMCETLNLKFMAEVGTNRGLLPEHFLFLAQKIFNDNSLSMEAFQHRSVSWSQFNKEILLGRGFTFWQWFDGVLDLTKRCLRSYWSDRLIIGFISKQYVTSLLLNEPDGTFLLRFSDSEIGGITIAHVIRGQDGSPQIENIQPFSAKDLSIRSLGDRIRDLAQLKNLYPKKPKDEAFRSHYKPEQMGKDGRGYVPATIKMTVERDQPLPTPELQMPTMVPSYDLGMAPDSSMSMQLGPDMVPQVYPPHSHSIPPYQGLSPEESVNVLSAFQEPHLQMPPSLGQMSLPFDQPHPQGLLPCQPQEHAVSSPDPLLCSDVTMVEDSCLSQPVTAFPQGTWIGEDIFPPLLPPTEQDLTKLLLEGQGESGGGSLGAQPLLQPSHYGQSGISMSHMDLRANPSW
Outline: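 Luminescence from HiBiT-STAT6 complementing stably expressed LgBiT in HeLa clone 4.14 reports remaining STAT6 protein. Cells (5000/well) exposed to compound for 4-24 h at 37° C; read 0.5 h after Nano-Glo addition. 100% degradation window set with 50 μM terfenadine; percent degradation plotted against concentration.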

Structure (SMILES) | EC50 [1] | DC50 (STAT6) | Emax (STAT6; read-out: STAT6 degradation Emax)
CNc1cc(=O)n(-c2ccnc3c2cc([C@H](C)N2CC=C(c4c(C)cc(C(=O)N5CCC(CC6CCN(c7ccc8c(c7)C7(CC7)C(=O)N8C7CCC(=O)NC7=O)CC6)CC5)cc4F)CC2)n3C)cc1F (stereo partly drawn) [Example 3u284, 3-(5′-(4-((1-(3-fluoro-4-(1-((S)-1-(4-(5-fluoro-4-(methylamino)-2-oxopyridin-1 (2H)-yl)-1-methyl-1H-pyrrolo[2,3-b]pyridin-2-yl)ethyl)-1,2,3,6-tetrahydropyridin-4-yl)-5-methylbenzoyl)piperidin-4-yl)methyl)piperidin-1-yl)-2′-oxospiro[cyclopropane-1,3′-indolin]-1′-yl)piperidine-2,6-dione] | 24 nM | 22.6 nM | –
CNc1ccn(-c2ccnc3c2cc([C@H](C)N2CC=C(c4c(C)cc(C(=O)N5CCC(CN6CCN(c7ccc8c(c7)n(C7CC7)c(=O)n8C7CCC(=O)NC7=O)CC6)CC5)cc4F)CC2)n3C)c(=O)c1 (stereo partly drawn) [Example 3u287, 3-(3-cyclopropyl-5-(4-((1-(3-fluoro-5-methyl-4-(1-((S)-1-(1-methyl-4-(4-(methyl-amino)-2-oxopyridin-1 (2H)-yl)-1H-pyrrolo[2,3-b]pyridin-2-yl)ethyl)-1,2,3,6-tetrahydropyridin-4-yl)benzoyl)piperidin-4-yl)methyl)piperazin-1-yl)-2-oxo-2,3-dihydro-1H-benzo[d]imidazol-1-yl)-piperidine-2,6-dione] | 2.9 nM | 2.7 nM | –
CNc1cc(=O)n(-c2ccnc3c2cc([C@H](C)N2CC=C(c4c(C)cc(C(=O)N5CCC(CN6CCN(c7ccc8c(c7)C7(CC7)C(=O)N8C7CCC(=O)NC7=O)C[C@H]6C)CC5)cc4F)CC2)n3C)cc1F (stereo partly drawn) [Example 3u295, 3-(5′-((R)-4-((1-(3-fluoro-4-(1-((S)-1-(4-(5-fluoro-4-(methylamino)-2-oxopyridin-1 (2H)-yl)-1-methyl-1H-pyrrolo[2,3-b]pyridin-2-yl)ethyl)-1,2,3,6-tetrahydropyridin-4-yl)-5-methylbenzoyl)piperidin-4-yl)methyl)-3-methylpiperazin-1-yl)-2′-oxospiro[cyclopropane-1,3′-indolin]-1′-yl)piperidine-2,6-dione] | 18.9 nM | 4.5 nM | –
CNc1cc(=O)n(-c2ccnc3c2cc([C@H](C)N2CC=C(c4c(C)cc(C(=O)N5CCC(CN6CCN(c7ccc8c(c7)n(C)c(=O)n8C7CCC(=O)NC7=O)CC6)CC5)cc4F)CC2)n3C)cc1F (stereo partly drawn) [Example 3u298, 3-(5-(4-((1-(3-fluoro-4-(1-((S)-1-(4-(5-fluoro-4-(methylamino)-2-oxopyridin-1 (2H)-yl)-1-methyl-1H-pyrrolo[2,3-b]pyridin-2-yl)ethyl)-1,2,3,6-tetrahydropyridin-4-yl)-5-methylbenzoyl)-piperidin-4-yl)methyl)piperazin-1-yl)-3-methyl-2-oxo-2,3-dihydro-1H-benzo[d]imidazol-1-yl)-piperidine-2,6-dione] | 2.6 nM | 1.8 nM | –
CNc1ccn(-c2ccnc3c2cc([C@H](C)N2CC=C(c4c(C)cc(C(=O)N5CCC(CN6CCN(c7ccc8c(c7)n(C)c(=O)n8C7CCC(=O)NC7=O)CC6)CC5)cc4F)CC2)n3C)c(=O)c1 (stereo partly drawn) [Example 3u299, 3-(5-(4-((1-(3-fluoro-5-methyl-4-(1-((S)-1-(1-methyl-4-(4-(methylamino)-2-oxopyridin-1 (2H)-yl)-1H-pyrrolo[2,3-b]pyridin-2-yl)ethyl)-1,2,3,6-tetrahydropyridin-4-yl)benzoyl)piperidin-4-yl)methyl)piperazin-1-yl)-3-methyl-2-oxo-2,3-dihydro-1H-benzo[d]imidazol-1-yl)piperidine-2,6-dione] | 0.5 nM | 0.9 nM | –
CNc1cc(=O)n(-c2ccnc3c2cc([C@H](C)N2CC=C(c4c(F)cc(C(=O)N5CCC(CN6CCN(c7ccc8c(c7)C7(CC7)C(=O)N8C7CCC(=O)NC7=O)CC6)CC5)cc4F)CC2)n3C)cc1F (stereo partly drawn) [Example 3u300, 3-(5′-(4-((1-(3,5-difluoro-4-(1-((S)-1-(4-(5-fluoro-4-(methylamino)-2-oxopyridin-1 (2H)-yl)-1-methyl-1H-pyrrolo[2,3-b]pyridin-2-yl)ethyl)-1,2,3,6-tetrahydropyridin-4-yl)benzoyl)-piperidin-4-yl)methyl)piperazin-1-yl)-2′-oxospiro[cyclopropane-1,3′-indolin]-1′-yl)piperidine-2,6-dione] | 24.1 nM | 13 nM | –

Now from value to molecule:

EC50 [1] | DC50 (STAT6) | Emax (STAT6; read-out: STAT6 degradation Emax) | Structure (SMILES)
90.5 nM | – | 20 to 30% | CNc1cc(=O)n(-c2ccnc3c2cc(CN2CCC(c4c(F)cc(C(=O)N5CCC(CN6CCN(c7ccc8c(c7)C7(CC7)C(=O)N8C7CCC(=O)NC7=O)CC6)CC5)cc4F)CC2)n3C)cc1F (stereo not shown) [Example 3u301, 3-(5′-(4-((1-(3,5-difluoro-4-(1-((4-(5-fluoro-4-(methylamino)-2-oxopyridin-1 (2H)-yl)-1-methyl-1H-pyrrolo[2,3-b]pyridin-2-yl)methyl)piperidin-4-yl)benzoyl)piperidin-4-yl)methyl)-piperazin-1-yl)-2′-oxospiro[cyclopropane-1,3′-indolin]-1′-yl)piperidine-2,6-dione]
29.2 nM | 4.9 nM | – | CNc1cc(=O)n(-c2ccnc3c2cc([C@H](C)N2CC=C(c4c(C)cc(C(=O)N5CCC(CN6CCN(c7ccc8c(c7)C7(CC7)C(=O)N8C7CCC(=O)NC7=O)CC6)CC5)cc4F)CC2)n3C)cc1F (stereo partly drawn) [Example 3u302, 3-(5′-(4-((1-(3-fluoro-4-(1-((S)-1-(4-(5-fluoro-4-(methylamino)-2-oxopyridin-1 (2H)-yl)-1-methyl-1H-pyrrolo[2,3-b]pyridin-2-yl)ethyl)-1,2,3,6-tetrahydropyridin-4-yl)-5-methylbenzoyl)piperidin-4-yl)methyl)piperazin-1-yl)-2′-oxospiro[cyclopropane-1,3′-indolin]-1′-yl)piperidine-2,6-dione]
37.1 nM | 21.7 nM | – | CNc1cc(=O)n(-c2ccnc3c2cc([C@H](C)N2CC=C(c4c(C)cc(C(=O)N5CCC(CN6CCN(c7ccc8c(c7)C(C)(C)C(=O)N8C7CCC(=O)NC7=O)CC6)CC5)cc4F)CC2)n3C)cc1F (stereo partly drawn) [Example 3u303, 3-(5-(4-((1-(3-fluoro-4-(1-((S)-1-(4-(5-fluoro-4-(methylamino)-2-oxopyridin-1 (2H)-yl)-1-methyl-1H-pyrrolo[2,3-b]pyridin-2-yl)ethyl)-1,2,3,6-tetrahydropyridin-4-yl)-5-methylbenzoyl)piperidin-4-yl)methyl)piperazin-1-yl)-3,3-dimethyl-2-oxoindolin-1-yl)piperidine-2,6-dione]
10.8 nM | 6.5 nM | – | CNc1ccn(-c2ccnc3c2cc([C@H](C)N2CC=C(c4c(C)cc(C(=O)N5CCC(CN6CCN(c7ccc8c(c7)C(C)(C)C(=O)N8C7CCC(=O)NC7=O)CC6)CC5)cc4F)CC2)n3C)c(=O)c1 (stereo partly drawn) [Example 3u304, 3-(5-(4-((1-(3-fluoro-5-methyl-4-(1-((S)-1-(1-methyl-4-(4-(methylamino)-2-oxopyridin-1 (2H)-yl)-1H-pyrrolo[2,3-b]pyridin-2-yl)ethyl)-1,2,3,6-tetrahydropyridin-4-yl)benzoyl)piperidin-4-yl)methyl)piperazin-1-yl)-3,3-dimethyl-2-oxoindolin-1-yl)piperidine-2,6-dione]
4.8 nM | 2.2 nM | – | CNc1cc(=O)n(-c2ccnc3c2cc([C@H](C)N2CC=C(c4c(C)cc(C(=O)N5CCC(CN6CCN(Cc7ccc8c(c7)C7(CCC7)C(=O)N8C7CCC(=O)NC7=O)C[C@@H]6C)CC5)cc4F)CC2)n3C)cc1F (stereo partly drawn) [Example 3u309, 3-(5′-(((S)-4-((1-(3-fluoro-4-(1-((S)-1-(4-(5-fluoro-4-(methylamino)-2-oxopyridin-1 (2H)-yl)-1-methyl-1H-pyrrolo[2,3-b]pyridin-2-yl)ethyl)-1,2,3,6-tetrahydropyridin-4-yl)-5-methylbenzoyl)piperidin-4-yl)methyl)-3-methylpiperazin-1-yl)methyl)-2′-oxospiro[cyclobutane-1,3′-indolin]-1′-yl)piperidine-2,6-dione]
